These results are taken from US7217702B2, “Selective antagonists of A2A adenosine receptors” (Adenosine Therapeutics, LLC, priority 2004, dated 2007).

For data set [1] the following is noted: in vivo; cited from earlier work.
In the next data set the target is T1, A2BAR (Homo sapiens, UniProt P29275).
T1 sequence (P29275 1-332): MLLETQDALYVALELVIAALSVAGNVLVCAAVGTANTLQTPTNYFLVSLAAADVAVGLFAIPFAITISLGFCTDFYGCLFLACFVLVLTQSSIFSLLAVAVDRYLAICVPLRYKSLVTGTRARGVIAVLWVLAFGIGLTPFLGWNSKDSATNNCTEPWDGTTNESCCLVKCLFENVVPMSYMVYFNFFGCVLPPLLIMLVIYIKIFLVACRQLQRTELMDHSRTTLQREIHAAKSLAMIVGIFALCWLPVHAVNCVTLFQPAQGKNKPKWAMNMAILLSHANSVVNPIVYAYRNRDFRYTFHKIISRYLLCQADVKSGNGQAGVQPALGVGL
The data set can be described thus: Binding affinity of A2AAR ligands, radioligand displacement at A2BAR. The following applies: for selectivity ratio vs. the A2AAR, A2BAR: number in parentheses; for displacement of radioligand, A2BAR: 1 μM candidate ligand. Background: Displacement assays read how much labelled ligand stays bound in the presence of the test substance.

Another data set has as its target A2A adenosine receptor (Homo sapiens, UniProt P29274). The data set can be described thus: Human Ki of the compound tables. It counts as binding. The following applies: receptor subtype not given.
Another data set deals with T2, A3AR (Homo sapiens, UniProt P0DMS8).
T2 sequence (P0DMS8 1-318): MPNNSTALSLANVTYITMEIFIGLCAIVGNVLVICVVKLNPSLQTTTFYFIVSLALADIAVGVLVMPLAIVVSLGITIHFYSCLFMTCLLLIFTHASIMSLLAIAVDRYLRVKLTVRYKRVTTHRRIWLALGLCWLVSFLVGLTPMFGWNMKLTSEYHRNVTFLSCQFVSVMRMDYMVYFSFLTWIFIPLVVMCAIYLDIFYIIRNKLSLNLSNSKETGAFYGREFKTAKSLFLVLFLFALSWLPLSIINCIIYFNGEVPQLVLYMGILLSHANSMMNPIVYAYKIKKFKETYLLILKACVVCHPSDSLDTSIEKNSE
The experiment in a line: Binding affinity of A2AAR ligands, radioligand displacement at A3AR. To be noted: for selectivity ratio vs. the A2AAR, A3AR: number in parentheses; for displacement of radioligand, A3AR: 1 μM candidate ligand.

Another data set deals with A2AAR (Homo sapiens, UniProt P29274). The experiment in a line: Binding affinity of A2AAR ligands, radioligand displacement at A2AAR.
Chain of A2AAR (P29274 whole entry): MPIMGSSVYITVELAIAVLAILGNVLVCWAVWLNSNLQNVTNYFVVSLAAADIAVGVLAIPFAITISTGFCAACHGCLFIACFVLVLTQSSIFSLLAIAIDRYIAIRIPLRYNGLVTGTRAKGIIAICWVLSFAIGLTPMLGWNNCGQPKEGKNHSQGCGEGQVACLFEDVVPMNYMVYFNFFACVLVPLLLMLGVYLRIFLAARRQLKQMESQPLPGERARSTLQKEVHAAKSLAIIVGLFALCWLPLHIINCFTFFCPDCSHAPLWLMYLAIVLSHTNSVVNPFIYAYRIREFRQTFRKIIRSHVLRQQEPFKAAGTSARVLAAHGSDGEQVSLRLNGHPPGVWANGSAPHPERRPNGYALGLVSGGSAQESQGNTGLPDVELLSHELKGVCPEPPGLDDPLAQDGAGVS
The target of the next data set is T3, A1AR (Homo sapiens, UniProt P30542).
T3 sequence (P30542 1-326): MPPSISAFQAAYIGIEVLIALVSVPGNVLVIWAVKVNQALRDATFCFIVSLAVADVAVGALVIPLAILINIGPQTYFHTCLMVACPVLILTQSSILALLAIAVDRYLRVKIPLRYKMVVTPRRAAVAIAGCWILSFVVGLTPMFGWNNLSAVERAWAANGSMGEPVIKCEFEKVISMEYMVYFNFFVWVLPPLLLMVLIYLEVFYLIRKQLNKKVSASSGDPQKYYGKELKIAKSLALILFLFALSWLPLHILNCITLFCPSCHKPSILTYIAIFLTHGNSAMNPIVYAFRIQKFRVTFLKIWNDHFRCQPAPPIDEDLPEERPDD
The experiment in a line: Binding affinity of A2AAR ligands, radioligand displacement at A1AR. The following applies: for selectivity ratio vs. the A2AAR, A1AR: number in parentheses.

The subject of another data set is rats. The following applies: cited from earlier work.
The next data set concerns PD patients. The following applies: 20–80 mg/day; cited from earlier work.
For data set [2] the following is noted: cited from earlier work.
Data set [3] deals with normal and dopamine-depleted mice. The experiment in a line: Dose response of motor activity in normal and MPTP dopamine-depleted mice. The data set is classed as in vivo, mouse. The following applies: i.p. The method, then:
In the set of experiments, we perform a dose response study of ATL-2 in stimulating motor activity in normal mice, and then we further extend this to dopamine-depleted mice. Adult male mice are habituated for 120 minutes and treated (i.p.) with saline or varying doses of compound, and their locomotor activity recorded for 120 minutes.
In a second set of experiments, we utilize the MPTP treatment paradigm to create animal model of PD by severely depleting dopamine in mice. We use a single MPTP treatment paradigm (40 mg/kg) which has been reproducibly reducing dopamine to 30–40% of normal dopamine contents in striatum in our previous studies.^35,74 Adult male mice (˜[…]) are treated with single dose of MPTP (40 mg/kg). Thirty minutes after the MPTP treatment, mice are injected (i.p.) with vehicle or compounds of the invention at the same doses discussed above. Their motor activity is recorded for 180 minutes.

A further data set relates to C57BL/6 mice. The data set can be described thus: Motor stimulation in normal mice, locomotor activity cage system. It counts as in vivo, mouse. As to the method: The ability of compounds to stimulate motor activity in normal mice was measured using a simple, computer-assisted locomotor activity cage system. C57BL/6 mice (n═6–8 purchased from the Jackson's lab) were habituated for the testing environment for 120 minute prior to drug treatment. The test compounds were dissolved in vehicle (10% DMSO, 10% castrol oil EL-620 and 80% saline). The drug was administrated intraperitoneally at a dose of 15 mg/kg, and locomotor activity was recorded for 2 hours before and after drug administration.

In data set [4] the test system is A2A receptor KO and WT mice. The experiment in a line: Motor stimulant effect in A2A receptor KO mice and WT littermates. It counts as in vivo, mouse. To be noted: 15 mg/kg, FIG. 2. As to the method:
We validated that ATL-2 acts on the A2A receptor to stimulate motor activity by using A2AR KO mice (in both mixed (129sv X C57BL/6) as well as congenic (C57BL/6 genetic background) developed over the last several years. We evaluated the motor stimulant effect of ATL-2 in A2A receptor KO and their WT littermates. WT and A2A KO mice (n=4) were habituated for 60 minutes and treated with ATL-2 (15 mg/kg) and recorded for motor activity for 120 minutes.

For data set [5], the system named is unilateral 6-OHDA-lesioned mice. The experiment in a line: L-dopa-induced locomotor sensitization in unilateral 6-OHDA-lesioned mice. To be noted: 3 or 10 mg/kg i.p. before daily L-dopa. The data set is classed as in vivo, mouse. The method, then:
The ability of ATL-2 to modify the development of L-dopa-induced locomotor sensitization in hemiparkinsonian mice are tested. C57BL/6 mice (from the Jackson's lab, Bar Harbor, […].) are lesioned with 6-OHDA by unilateral intrastriatal using a standard lesioning protocol. Seven days after the 6-OHDA (or MPP^+) treatment, mice are injected with L-dopa (2.0 mg/kg, daily) for 14 days. Five min prior to each L-dopa treatment, the mice receive intraperitoneal pretreatment with: (1) vehicle, (2) ATL-2 (3 mg/kg) or (3) ATL-2 (10 mg/kg). […] Rotational responses to L-dopa are recorded on the days 1, 3, 5, 7, 10 and 15. Following the behavioral measurement, mice may be sacrificed and their brains sectioned through striatum and substantia nigra. Striatal enkephalin mRNA levels are determined by in situ hybridization histochemistry. Similarly, DAT (^3H-mazindol) binding is measured by receptor autoradiography to ensure successful and equivalent lesions among different experimental groups.

The next data set relates to dopamine-depleted mice. The data set can be described thus: Synergy with L-dopa on locomotor activity in MPTP dopamine-depleted mice. The following applies: MPTP-treated mice. It counts as in vivo, mouse. The method, then: We further tested the ability of these compounds to synergistically enhance motor function in conjunction with L-dopa, the standard therapy. Mice are injected (i.p.) with MPTP at a dose (1–2.5 mg/kg) that markedly decreases striatal dopamine levels. […] Locomotor behavior is monitored for 120 min before and after the treatment.

Setting [6] is: normal C57BL/6 mice, 15 mg/kg intraperitoneally, FIG. 1.

Chain of A2A adenosine receptor (P29274 whole entry): as the sequence (P29274 whole entry) above

As to `Nc1nc(NCCc2ccc(O)cc2)nc2nc(-c3ccco3)nn12` [ZM241385], the bioavailability entry in data set [1] is given as “poor bioavailability”.
In the case of `C#CCn1cnc2c(NC(CC)CC)nc(C#C[C@]3(O)CCC[C@@H](C)C3)nc21` [Compound 17, 2-{2-[1(S)-Hydroxy-3(R)-methyl-1-cyclohexyl]ethyn-1-yl}-N6-(3-pentyl)-9-(propargyl)adenine], the Ki (as a rule, the dissociation constant of the complex between target and ligand, obtained from inhibition or displacement) on A2BAR was 147 nM; at A2A adenosine receptor, under 0.1 µM; on A3AR, 188 nM; at A2AAR, 5 nM; on A1AR, 11 nM. For the same compound, the “selectivity ratio vs. the A2AAR, A2BAR” value at A2BAR was determined as 29. In addition, the “selectivity ratio vs. the A2AAR, A3AR” value on A3AR turned out to be 38. Also, the “selectivity ratio vs. the A2AAR, A1AR” value at A1AR amounted to 2.
Take `CCC(CC)Nc1nc(C#C[C@]2(O)CCC[C@@H](C)C2)nc2c1ncn2C` [Compound 11, 2-{2-[1(S)-Hydroxy-3(R)-methyl-1-cyclohexyl]ethyn-1-yl}-9-methyl-N6-(3-pentyl)adenine]: the “displacement of radioligand, A2BAR” value at A2BAR is listed as 20%. The figures for the Ki at A2A adenosine receptor, at A2AAR and on A1AR were under 0.5 µM, 137 nM and 172 nM, respectively. Further, the “displacement of radioligand, A3AR” value on A3AR turned out to be 30%. The “selectivity ratio vs. the A2AAR, A1AR” value at A1AR is recorded as 1.3.
`Nc1nc(C#CC2(O)C3CC4CC(C3)CC2C4)nc2c1ncn2C1CCCC1` (stereo not drawn) [Compound 50]: on A2BAR, the “displacement of radioligand, A2BAR” value is listed as 40%. Further, the Ki at A2A adenosine receptor was under 0.1 µM; on A2AAR it was 12 nM; on A1AR it was over 325 nM. Besides, the “displacement of radioligand, A3AR” value at A3AR is recorded as 40%. In addition, the “selectivity ratio vs. the A2AAR, A1AR” value on A1AR is reported as over 27.
Consider `CCn1c(=O)c2c(nc(/C=C/c3ccc(OC)c(OC)c3)n2C)n(CC)c1=O` [KW6002], for which, in the data set on rats, the toxicity result is “long-term toxicity”. The “tolerability in clinical trial” value in the data set on PD patients was “well tolerated”.
In the case of `Nc1nc2c(cnn2CCc2ccccc2)c2nc(-c3ccco3)nn12` [SCH58261], in data set [2], the solubility entry was “very poorly soluble”.
In turn, `C#CCn1cnc2c(N)nc(C#C[C@]3(O)CCC[C@@H](C)C3)nc21` [Compound 2, 2-{2-[1(S)-Hydroxy-3(R)-methyl-1-cyclohexyl]ethyn-1-yl}-9-propargyladenine] showed a Ki at A2BAR of 50 nM. Also, the Ki at A2A adenosine receptor was under 0.1 µM. Further, the “motor function, dose dependence” value in data set [3] is listed as “Enhances Motor Function in a Dose-dependent Manner”. Also, in the data set on C57BL/6 mice (from previous experience with other A2AR antagonists), the “motor stimulant effect compared with other A2AR antagonists such as SCH58261 and KW6002” value is reported as “comparable or stronger”. Besides, in the data set with C57BL/6 mice (setting [6]), the “duration of motor stimulation” value is listed as “about 60 minutes”, the “motor stimulation (locomotor activity)” value was “strong motor stimulation” and the “time to peak of motor stimulation” value was at most 20 min. At A3AR, the Ki was 599 nM and the “selectivity ratio vs. the A2AAR, A3AR” value was found to be 630. Also, the “motor stimulation in A2A receptor KO mice” value in data set [4] (A2A receptor KO mice) was “absent”. In addition, in data set [4] (WT littermates), the “motor activity in WT mice” value is recorded as “produced motor activity”. Further, the “development of L-dopa-induced locomotor sensitization” value in [5] is reported as “delays or prevent the development of locomotor sensitization”. Further, in the data set on dopamine-depleted mice, the “shift of the dose-response curve with L-dopa” value is “left-shift”. For the same compound, the “effect with L-dopa in stimulating locomotor activity” value in the data set with dopamine-depleted mice (L-dopa 25 mg/kg + ATL-2 0.3-10 mg/kg) is “synergistic effect”. Also, the affinity at A2AAR, expressed as Ki, was 0.95 nM. For the same compound, at A1AR, the affinity corresponds to a Ki of 4.6 nM and the “selectivity ratio vs. the A2AAR, A1AR” value stood at 5.
As to `C#CCn1cnc2c(N)nc(C#CC3(O)C4CC5CC(C4)CC3C5)nc21` (stereo not drawn) [Compound 51], the Ki was 155 nM on A2BAR; under 0.1 µM at A2A adenosine receptor; over 650 nM on A3AR; 1.6 nM on A2AAR; 25 nM on A1AR. Besides, at A2BAR, the “selectivity ratio vs. the A2AAR, A2BAR” value came out at 97. Also, at A3AR, the “selectivity ratio vs. the A2AAR, A3AR” value was over 400. The “selectivity ratio vs. the A2AAR, A1AR” value at A1AR turned out to be 16.
In the case of `C[C@@H]1CCC[C@@](O)(C#Cc2nc(N)c3ncn(C4CCCC4)c3n2)C1` [Compound 3, 9-Cyclopentyl-2-{2-[1(S)-hydroxy-3(R)-methyl-1-cyclohexyl]ethyn-1-yl}adenine], the Ki was 357 nM on A2BAR; under 0.1 µM on A2A adenosine receptor; 633 nM on A3AR; 10 nM on A2AAR; 368 nM at A1AR. Moreover, the “selectivity ratio vs. the A2AAR, A2BAR” value at A2BAR stood at 36. In addition, the “selectivity ratio vs. the A2AAR, A3AR” value at A3AR turned out to be 63. Further, at A1AR, the “selectivity ratio vs. the A2AAR, A1AR” value was found to be 37.
